Tests used:
Test in all cases: relative viability (nuclei count vs DMSO), 5 days (fraction); higher = more cells survive
KIN001-266 = compound: CCN1CCC(CC1)N2C=C(N=N2)CNC3=CC4=C(C(=CN=C4C(=C3)Cl)C#N)NC5=CC(=C(C=C5)F)Cl [KIN001-266]
In short: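 In 1536-well plates, lung cancer cell lines rested overnight at 37 °C before five library-drug doses (not always all listed), √10 apart, were pinned onto vehicle-anchored plates. Nuclei were counted with MetaXpress from 4× Hoechst images taken after 5 days without medium change. Viability compares treated-well with vehicle-well nuclei as a median over plates, and plates needed control CV below 25% plus at least one doubling to pass.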

KIN001-266 + Palbociclib = compound: CCN1CCC(CC1)N2C=C(N=N2)CNC3=CC4=C(C(=CN=C4C(=C3)Cl)C#N)NC5=CC(=C(C=C5)F)Cl [KIN001-266] + CC(=O)c1c(C)c2cnc(Nc3ccc(N4CCNCC4)cn3)nc2n(C2CCCC2)c1=O [Palbociclib] (partner 0.5 µM)
In short: (§1)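 Medians of duplicate plates are given as relative viability. That measure is the nuclei count in treated wells divided by the count in vehicle wells. Counts were taken on 4× images of lung cancer cell lines in 1536-well plates, 5 days after pin-tool dosing the day after seeding with one drug alone or a fixed anchor-drug dose plus five library-drug doses (not always all listed) in √10 steps.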

KIN001-266 + Foretinib = compound: CCN1CCC(CC1)N2C=C(N=N2)CNC3=CC4=C(C(=CN=C4C(=C3)Cl)C#N)NC5=CC(=C(C=C5)F)Cl [KIN001-266] + COc1cc2c(Oc3ccc(NC(=O)C4(C(=O)Nc5ccc(F)cc5)CC4)cc3F)ccnc2cc1OCCCN1CCOCC1 [Foretinib] (partner 0.25 µM)
In short: as §1

KIN001-266 + OSI-027 = compound: CCN1CCC(CC1)N2C=C(N=N2)CNC3=CC4=C(C(=CN=C4C(=C3)Cl)C#N)NC5=CC(=C(C=C5)F)Cl [KIN001-266] + COc1cccc2cc(-c3nc([C@H]4CC[C@H](C(=O)O)CC4)n4ncnc(N)c34)[nH]c12 [OSI-027] (partner 0.5 µM)
In short: as §1

| Cell Line | relative viability (KIN001-266; 0.08 µM) | relative viability (KIN001-266; 0.253 µM) | relative viability (KIN001-266; 0.8 µM) | relative viability (KIN001-266; 2.53 µM) | relative viability (KIN001-266; 8 µM) | relative viability (KIN001-266 + Palbociclib; first compound 0.08 µM) | relative viability (KIN001-266 + Palbociclib; first compound 0.253 µM) | relative viability (KIN001-266 + Palbociclib; first compound 0.8 µM) | relative viability (KIN001-266 + Palbociclib; first compound 2.53 µM) | relative viability (KIN001-266 + Palbociclib; first compound 8 µM) | relative viability (KIN001-266 + Foretinib; first compound 0.08 µM) | relative viability (KIN001-266 + Foretinib; first compound 0.253 µM) | relative viability (KIN001-266 + Foretinib; first compound 0.8 µM) | relative viability (KIN001-266 + Foretinib; first compound 2.53 µM) | relative viability (KIN001-266 + Foretinib; first compound 8 µM) | relative viability (KIN001-266 + OSI-027; first compound 0.08 µM) | relative viability (KIN001-266 + OSI-027; first compound 0.253 µM) | relative viability (KIN001-266 + OSI-027; first compound 0.8 µM) | relative viability (KIN001-266 + OSI-027; first compound 2.53 µM) | relative viability (KIN001-266 + OSI-027; first compound 8 µM) |
| --- | --- | --- | --- | --- | --- | --- | --- | --- | --- | --- | --- | --- | --- | --- | --- | --- | --- | --- | --- | --- |
| 201T | 1.02 | 1 | 0.959 | 0.995 | 0.956 | 0.342 | 0.366 | 0.35 | 0.361 | 0.359 | 1.07 | 1.11 | 1.13 | 1.12 | 1.14 | 0.786 | 0.53 | 0.8 | 0.776 | 0.735 |
| A-427 | 1.04 | 1.06 | 1.05 | 0.928 | 0.953 | 0.511 | 0.524 | 0.5 | 0.493 | 0.526 | 1.06 | 1.07 | 0.983 | 0.992 | 0.971 | 0.492 | 0.478 | 0.499 | 0.475 | 0.48 |
| ABC-1 | 1.03 | 1.11 | 1.12 | 0.959 | 0.774 | 0.789 | 0.799 | 0.598 | 0.65 | 0.558 | 1.02 | 1.12 | 1.1 | 1.08 | 0.873 | 0.649 | 0.436 | 0.622 | 0.392 | 0.375 |
| BEN | 0.991 | 0.931 | 1.06 | 0.864 | 0.996 | 0.439 | 0.495 | 0.511 | 0.467 | 0.507 | 0.708 | 0.88 | 0.755 | 0.407 | 0.691 | 0.296 | 0.335 | 0.305 | 0.274 | 0.283 |
| CAL-12T | 1.07 | 0.965 | 0.956 | 1.09 | 0.994 | 0.44 | 0.492 | 0.438 | 0.359 | 0.419 | 1.21 | 1.01 | 1.02 | 0.974 | 1.11 | 0.696 | 0.742 | 0.538 | 0.508 | 0.509 |
| COR-L23 | 1 | 0.984 | 1.02 | 0.983 | 0.828 | 0.334 | 0.28 | 0.281 | 0.294 | 0.22 | 0.905 | 0.944 | 0.869 | 0.933 | 0.776 | 0.851 | 0.788 | 0.895 | 0.657 | 0.582 |
| COR-L 105 | 0.942 | 0.967 | 0.963 | 1 | 0.902 | 0.399 | 0.386 | 0.376 | 0.407 | 0.436 | 0.795 | 1.09 | 0.92 | 0.915 | 0.758 | 0.683 | 0.822 | 0.66 | 0.645 | 0.576 |
| Calu-6 | 0.995 | 1.04 | 1.02 | 0.969 | 0.798 | – | – | – | – | – | 0.921 | 0.861 | 0.925 | 0.917 | 0.609 | – | – | – | – | – |

Source: the supplement of paper PMC10307832
